From US20040092591A1, “Therapeutic use of fused bicyclic or tricyclic amino acids” (priority 2002, published 2004)

Target: T1, α2δ subunit derived from porcine brain tissue (Sus scrofa, UniProt A0A287BIN3)
T1 construct: the α2δ subunit derived from porcine brain tissue; from tissue; host or cells: porcine brain
Assay: radioligand binding assay using [3H]gabapentin and the α2δ subunit
Conditions: [3H]gabapentin radioligand
Excerpt: The biological activity of the compounds of the invention may be measured in a radioligand binding assay using [^3H]gabapentin and the α2δ subunit derived from porcine brain tissue (Gee N. S., Brown J. P., Dissanayake V. U. K., Offord J., Thurlow R., Woodruff G. N., […] J. Biol. Chem., 1996;271:5879-[…]). Results may be expressed in terms of μM or nM α2δ binding affinity.

T1 sequence (A0A287BIN3 entry or part of it): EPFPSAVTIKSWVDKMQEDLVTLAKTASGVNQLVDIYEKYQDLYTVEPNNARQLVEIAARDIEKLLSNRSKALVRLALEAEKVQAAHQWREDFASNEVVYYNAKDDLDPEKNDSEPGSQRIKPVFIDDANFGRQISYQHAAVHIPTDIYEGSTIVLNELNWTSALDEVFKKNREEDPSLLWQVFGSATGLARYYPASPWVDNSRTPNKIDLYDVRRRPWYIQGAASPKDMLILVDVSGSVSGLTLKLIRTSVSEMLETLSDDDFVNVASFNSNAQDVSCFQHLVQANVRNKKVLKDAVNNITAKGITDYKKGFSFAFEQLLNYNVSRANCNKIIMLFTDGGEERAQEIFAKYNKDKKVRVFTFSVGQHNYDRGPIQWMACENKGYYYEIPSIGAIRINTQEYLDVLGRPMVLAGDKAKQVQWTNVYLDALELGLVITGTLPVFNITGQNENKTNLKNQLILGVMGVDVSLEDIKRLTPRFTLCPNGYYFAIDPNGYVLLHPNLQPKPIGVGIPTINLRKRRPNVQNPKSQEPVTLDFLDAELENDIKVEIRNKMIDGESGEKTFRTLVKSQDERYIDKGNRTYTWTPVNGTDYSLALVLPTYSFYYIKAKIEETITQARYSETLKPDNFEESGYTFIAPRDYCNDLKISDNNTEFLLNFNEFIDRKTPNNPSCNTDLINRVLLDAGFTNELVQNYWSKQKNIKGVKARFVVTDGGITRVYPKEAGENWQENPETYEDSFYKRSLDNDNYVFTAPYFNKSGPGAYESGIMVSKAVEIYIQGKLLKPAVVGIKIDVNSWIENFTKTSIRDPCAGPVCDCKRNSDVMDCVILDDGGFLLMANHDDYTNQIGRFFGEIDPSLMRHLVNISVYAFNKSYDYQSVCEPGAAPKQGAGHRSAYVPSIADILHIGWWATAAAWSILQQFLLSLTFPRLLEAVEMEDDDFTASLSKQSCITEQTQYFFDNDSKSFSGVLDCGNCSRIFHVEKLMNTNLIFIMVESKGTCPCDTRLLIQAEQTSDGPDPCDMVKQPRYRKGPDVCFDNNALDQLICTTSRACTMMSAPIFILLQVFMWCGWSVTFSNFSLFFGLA

Compound	α2δ binding affinity
Cl.NC[C@]1(CC(=O)O)C[C@H]2CCCC[C@H]21 (racemic) [Example 4, [(1RS,6RS,7SR)-7-(Aminomethyl)bicyclo[4.2.]oct-7-yl]acetic acid hydrochloride]	600 nM
Cl.NC[C@]1(CC(=O)O)C[C@H]2CCC[C@H]21 [Example 1, [(1R,5R,6S)-6-(Aminomethyl)bicycl[3.2.0]hept-6-yl]acetic acid hydrochloride]	46.8 nM
